Results from ChEMBL document CHEMBL3797052 (Eur J Med Chem, 2016).

System: not listed separately
Test: Antiproliferative activity against human SKOV3 cells assessed as growth inhibition after 48 hrs by sulforhodamine B assay
Type: functional
Settings: SK-OV-3, 48 h
For CNC(=O)c1cc(Oc2ccc3nc(NC(=O)Nc4ccc(Cl)c(Cl)c4)sc3c2)ccn1, the GI50 was 2.24 µM and the TGI was 4.09 µM.

Same assay, conditions: SK-OV-3, 48 h, read-out: LC50 (the source's name)
Compound CNC(=O)c1cc(Oc2ccc3nc(NC(=O)Nc4ccc(Cl)c(Cl)c4)sc3c2)ccn1 has a CC50 of 7.45 µM.

System: HT-29
Test: Antiproliferative activity against human HT-29 cells assessed as cell growth at 10^-7 M after 48 hrs by sulforhodamine B assay
Type: functional
Settings: HT-29, 48 h, read-out: Activity
Work on CNC(=O)c1cc(Oc2ccc3nc(NC(=O)Nc4ccc(Cl)c(Cl)c4)sc3c2)ccn1 yielded a growth at 0.1 µM of 105%.

System: not listed separately
Test: Antiproliferative activity against human MOLT4 cells assessed as cell growth at 10^-8 M after 48 hrs by sulforhodamine B assay
Type: functional
Settings: MOLT-4, 48 h, read-out: Activity
Compound CNC(=O)c1cc(Oc2ccc3nc(NC(=O)Nc4ccc(Cl)c(Cl)c4)sc3c2)ccn1 has a growth at 0.01 µM of 92%.

System: SK-MEL-2
Test: Antiproliferative activity against human SK-MEL-2 cells assessed as cell growth at 10^-6 M after 48 hrs by sulforhodamine B assay
Type: functional
Settings: SK-MEL-2, 48 h, read-out: Activity
Compound CNC(=O)c1cc(Oc2ccc3nc(NC(=O)Nc4ccc(Cl)c(Cl)c4)sc3c2)ccn1 has a growth at 1 µM of 105%.

System: A498
Test: Antiproliferative activity against human A498 cells assessed as growth inhibition after 48 hrs by sulforhodamine B assay
Type: functional
Settings: A498, 48 h
Compound CNC(=O)c1cc(Oc2ccc3nc(NC(=O)Nc4ccc(Cl)c(Cl)c4)sc3c2)ccn1 has a GI50 of 2.93 µM, an LC50 (concentration killing 50% of cells) greater than 100 µM and a TGI of 6.64 µM.

System: SN12C
Test: Antiproliferative activity against human SN12C cells assessed as growth inhibition after 48 hrs by sulforhodamine B assay
Type: functional
Settings: not given
For CNC(=O)c1cc(Oc2ccc3nc(NC(=O)Nc4ccc(Cl)c(Cl)c4)sc3c2)ccn1, the GI50 was 3.92 µM and the TGI was greater than 100 µM.

Same assay, conditions: read-out: LC50 (the source's name)
For CNC(=O)c1cc(Oc2ccc3nc(NC(=O)Nc4ccc(Cl)c(Cl)c4)sc3c2)ccn1, the CC50 was greater than 100 µM.

System: not listed separately
Test: Antiproliferative activity against human SKOV3 cells assessed as cell growth at 10^-6 M after 48 hrs by sulforhodamine B assay
Type: functional
Settings: SK-OV-3, 48 h, read-out: Activity
In the case of CNC(=O)c1cc(Oc2ccc3nc(NC(=O)Nc4ccc(Cl)c(Cl)c4)sc3c2)ccn1, the growth at 1 µM is reported as 117%.

System: M14
Test: Antiproliferative activity against human M14 cells assessed as cell growth at 10^-4 M after 48 hrs by sulforhodamine B assay
Type: functional
Settings: M14, 48 h, read-out: Activity
With CNC(=O)c1cc(Oc2ccc3nc(NC(=O)Nc4ccc(Cl)c(Cl)c4)sc3c2)ccn1 the growth at 100 µM was -46%.

System: A549
Test: Antiproliferative activity against human A549/ATCC cells assessed as growth inhibition after 48 hrs by sulforhodamine B assay
Type: functional
Settings: A549, 48 h
For CNC(=O)c1cc(Oc2ccc3nc(NC(=O)Nc4ccc(Cl)c(Cl)c4)sc3c2)ccn1, the GI50 was 1.89 µM and the TGI was 3.99 µM.

System: not listed separately
Test: Antiproliferative activity against human HOP62 cells assessed as cell growth at 10^-4 M after 48 hrs by sulforhodamine B assay
Type: functional
Settings: HOP-62, 48 h, read-out: Activity
In the case of CNC(=O)c1cc(Oc2ccc3nc(NC(=O)Nc4ccc(Cl)c(Cl)c4)sc3c2)ccn1, the growth at 100 µM is reported as -85%.

System: NCI-H522
Test: Antiproliferative activity against human NCI-H522 cells assessed as cell growth at 10^-7 M after 48 hrs by sulforhodamine B assay
Type: functional
Settings: NCI-H522, 48 h, read-out: Activity
With CNC(=O)c1cc(Oc2ccc3nc(NC(=O)Nc4ccc(Cl)c(Cl)c4)sc3c2)ccn1 the growth at 0.1 µM was 100%.

System: not listed separately
Test: Antiproliferative activity against human HCT15 cells assessed as cell growth at 10^-6 M after 48 hrs by sulforhodamine B assay
Type: functional
Settings: HCT-15, 48 h, read-out: Activity
CNC(=O)c1cc(Oc2ccc3nc(NC(=O)Nc4ccc(Cl)c(Cl)c4)sc3c2)ccn1 gave a growth at 1 µM of 91%.

System: not listed separately
Test: Antiproliferative activity against human HCC2998 cells assessed as cell growth at 10^-4 M after 48 hrs by sulforhodamine B assay
Type: functional
Settings: HCC 2998, 48 h, read-out: Activity
With CNC(=O)c1cc(Oc2ccc3nc(NC(=O)Nc4ccc(Cl)c(Cl)c4)sc3c2)ccn1 the growth at 100 µM was 37%.

System: NCI-H522
Test: Antiproliferative activity against human NCI-H522 cells assessed as cell growth at 10^-8 M after 48 hrs by sulforhodamine B assay
Type: functional
Settings: NCI-H522, 48 h, read-out: Activity
Work on CNC(=O)c1cc(Oc2ccc3nc(NC(=O)Nc4ccc(Cl)c(Cl)c4)sc3c2)ccn1 yielded a growth at 0.01 µM of 98%.

System: M14
Test: Antiproliferative activity against human M14 cells assessed as cell growth at 10^-8 M after 48 hrs by sulforhodamine B assay
Type: functional
Settings: M14, 48 h, read-out: Activity
For CNC(=O)c1cc(Oc2ccc3nc(NC(=O)Nc4ccc(Cl)c(Cl)c4)sc3c2)ccn1, the growth at 0.01 µM was 93%.

System: SR
Test: Antiproliferative activity against human SR cells assessed as cell growth at 10^-4 M after 48 hrs by sulforhodamine B assay
Type: functional
Settings: read-out: Activity
With CNC(=O)c1cc(Oc2ccc3nc(NC(=O)Nc4ccc(Cl)c(Cl)c4)sc3c2)ccn1 the growth at 100 µM was 50%.

System: CCRF-CEM
Test: Antiproliferative activity against human CCRF-CEM cells assessed as cell growth at 10^-6 M after 48 hrs by sulforhodamine B assay
Type: functional
Settings: read-out: Activity
Compound CNC(=O)c1cc(Oc2ccc3nc(NC(=O)Nc4ccc(Cl)c(Cl)c4)sc3c2)ccn1 has a growth at 1 µM of 100%.

Target: Voltage-gated inwardly rectifying potassium channel KCNH2 (Homo sapiens, UniProt Q12809)
Sequence (Q12809 whole entry): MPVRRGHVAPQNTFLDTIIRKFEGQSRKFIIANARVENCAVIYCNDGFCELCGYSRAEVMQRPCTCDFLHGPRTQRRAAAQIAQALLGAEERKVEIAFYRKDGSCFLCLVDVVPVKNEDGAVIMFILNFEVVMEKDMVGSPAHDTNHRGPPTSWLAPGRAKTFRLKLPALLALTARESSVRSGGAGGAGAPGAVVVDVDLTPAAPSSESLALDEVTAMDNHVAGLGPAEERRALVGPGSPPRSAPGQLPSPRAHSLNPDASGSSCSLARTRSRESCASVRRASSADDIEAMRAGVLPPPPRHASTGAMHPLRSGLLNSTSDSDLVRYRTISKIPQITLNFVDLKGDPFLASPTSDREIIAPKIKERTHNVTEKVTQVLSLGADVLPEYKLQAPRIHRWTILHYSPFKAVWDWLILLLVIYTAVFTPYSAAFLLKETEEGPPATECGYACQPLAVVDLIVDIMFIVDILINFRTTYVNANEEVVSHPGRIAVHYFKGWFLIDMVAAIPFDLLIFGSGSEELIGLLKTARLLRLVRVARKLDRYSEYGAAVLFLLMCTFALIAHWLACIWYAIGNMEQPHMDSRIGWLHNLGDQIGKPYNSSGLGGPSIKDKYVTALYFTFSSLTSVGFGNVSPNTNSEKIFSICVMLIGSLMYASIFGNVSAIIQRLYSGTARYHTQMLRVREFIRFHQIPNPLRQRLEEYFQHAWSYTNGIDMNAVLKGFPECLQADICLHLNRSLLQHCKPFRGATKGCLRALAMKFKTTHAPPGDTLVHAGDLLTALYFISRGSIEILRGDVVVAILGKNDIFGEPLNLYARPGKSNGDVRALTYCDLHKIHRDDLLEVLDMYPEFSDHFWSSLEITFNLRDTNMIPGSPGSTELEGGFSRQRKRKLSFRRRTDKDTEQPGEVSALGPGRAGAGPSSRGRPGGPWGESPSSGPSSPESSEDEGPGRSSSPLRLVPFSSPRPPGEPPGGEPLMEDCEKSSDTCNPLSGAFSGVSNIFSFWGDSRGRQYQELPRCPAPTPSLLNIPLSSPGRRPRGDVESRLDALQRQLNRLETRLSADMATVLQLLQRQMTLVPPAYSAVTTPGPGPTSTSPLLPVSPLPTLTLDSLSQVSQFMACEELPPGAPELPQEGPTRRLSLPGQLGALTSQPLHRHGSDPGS
Test: Inhibition of human ERG assessed as reduction in channel current by automated patch-clamp electrophysiology assay
Settings: not given
CNC(=O)c1cc(Oc2ccc3nc(NC(=O)Nc4ccc(Cl)c(Cl)c4)sc3c2)ccn1 gave an IC50 greater than 100 µM.

System: A498
Test: Antiproliferative activity against human A498 cells assessed as cell growth at 10^-6 M after 48 hrs by sulforhodamine B assay
Type: functional
Settings: A498, 48 h, read-out: Activity
For CNC(=O)c1cc(Oc2ccc3nc(NC(=O)Nc4ccc(Cl)c(Cl)c4)sc3c2)ccn1, the growth at 1 µM was 115%.

System: not listed separately
Test: Antiproliferative activity against human OVCAR4 cells assessed as cell growth at 10^-6 M after 48 hrs by sulforhodamine B assay
Type: functional
Settings: OVCAR-4, 48 h, read-out: Activity
CNC(=O)c1cc(Oc2ccc3nc(NC(=O)Nc4ccc(Cl)c(Cl)c4)sc3c2)ccn1 showed a growth at 1 µM of 104%.

System: K562
Test: Antiproliferative activity against human K562 cells assessed as cell growth at 10^-8 M after 48 hrs by sulforhodamine B assay
Type: functional
Settings: K562, 48 h, read-out: Activity
Work on CNC(=O)c1cc(Oc2ccc3nc(NC(=O)Nc4ccc(Cl)c(Cl)c4)sc3c2)ccn1 yielded a growth at 0.01 µM of 99%.

System: U-251
Test: Antiproliferative activity against human U251 cells assessed as cell growth at 10^-8 M after 48 hrs by sulforhodamine B assay
Type: functional
Settings: U-251, 48 h, read-out: Activity
For CNC(=O)c1cc(Oc2ccc3nc(NC(=O)Nc4ccc(Cl)c(Cl)c4)sc3c2)ccn1, the growth at 0.01 µM was 98%.

System: NCI-H226
Test: Antiproliferative activity against human NCI-H226 cells assessed as cell growth at 10^-6 M after 48 hrs by sulforhodamine B assay
Type: functional
Settings: NCI-H226, 48 h, read-out: Activity
For CNC(=O)c1cc(Oc2ccc3nc(NC(=O)Nc4ccc(Cl)c(Cl)c4)sc3c2)ccn1, the growth at 1 µM was 109%.

System: not listed separately
Test: Antiproliferative activity against human TK10 cells assessed as cell growth at 10^-8 M after 48 hrs by sulforhodamine B assay
Type: functional
Settings: TK-10, 48 h, read-out: Activity
In the case of CNC(=O)c1cc(Oc2ccc3nc(NC(=O)Nc4ccc(Cl)c(Cl)c4)sc3c2)ccn1, the growth at 0.01 µM is reported as 107%.

System: NCI-H460
Test: Antiproliferative activity against human NCI-H460 cells assessed as growth inhibition after 48 hrs by sulforhodamine B assay
Type: functional
Settings: NCI-H460, 48 h
In the case of CNC(=O)c1cc(Oc2ccc3nc(NC(=O)Nc4ccc(Cl)c(Cl)c4)sc3c2)ccn1, the GI50 is reported as 2.43 µM, the LC50 (concentration killing 50% of cells) is reported as greater than 100 µM and the TGI is reported as 5.32 µM.

System: HT-29
Test: Antiproliferative activity against human HT-29 cells assessed as cell growth at 10^-4 M after 48 hrs by sulforhodamine B assay
Type: functional
Settings: HT-29, 48 h, read-out: Activity
CNC(=O)c1cc(Oc2ccc3nc(NC(=O)Nc4ccc(Cl)c(Cl)c4)sc3c2)ccn1 showed a growth at 100 µM of -49%.

System: not listed separately
Test: Antiproliferative activity against human MOLT4 cells assessed as growth inhibition after 48 hrs by sulforhodamine B assay
Type: functional
Settings: MOLT-4, 48 h
CNC(=O)c1cc(Oc2ccc3nc(NC(=O)Nc4ccc(Cl)c(Cl)c4)sc3c2)ccn1 showed a GI50 greater than 100 µM, an LC50 greater than 100 µM and a TGI greater than 100 µM.

System: not listed separately
Test: Antiproliferative activity against human OVCAR8 cells assessed as cell growth at 10^-7 M after 48 hrs by sulforhodamine B assay
Type: functional
Settings: OVCAR-8, 48 h, read-out: Activity
CNC(=O)c1cc(Oc2ccc3nc(NC(=O)Nc4ccc(Cl)c(Cl)c4)sc3c2)ccn1 gave a growth at 0.1 µM of 101%.

System: MDA-MB-468
Test: Antiproliferative activity against human MDA-MB-468 cells assessed as cell growth at […] after 48 hrs by sulforhodamine B assay
Type: functional
Settings: MDA-MB-468, 48 h, read-out: Activity
CNC(=O)c1cc(Oc2ccc3nc(NC(=O)Nc4ccc(Cl)c(Cl)c4)sc3c2)ccn1 showed a growth at 0.01 µM of 94%.

System: KM12
Test: Antiproliferative activity against human KM12 cells assessed as cell growth at 10^-7 M after 48 hrs by sulforhodamine B assay
Type: functional
Settings: KM12, 48 h, read-out: Activity
For CNC(=O)c1cc(Oc2ccc3nc(NC(=O)Nc4ccc(Cl)c(Cl)c4)sc3c2)ccn1, the growth at 0.1 µM was 100%.

System: not listed separately
Test: Antiproliferative activity against human HCC2998 cells assessed as cell growth at 10^-8 M after 48 hrs by sulforhodamine B assay
Type: functional
Settings: HCC 2998, 48 h, read-out: Activity
Work on CNC(=O)c1cc(Oc2ccc3nc(NC(=O)Nc4ccc(Cl)c(Cl)c4)sc3c2)ccn1 yielded a growth at 0.01 µM of 98%.

System: not listed separately
Test: Antiproliferative activity against human PC3 cells assessed as growth inhibition after 48 hrs by sulforhodamine B assay
Type: functional
Settings: PC-3, 48 h
In the case of CNC(=O)c1cc(Oc2ccc3nc(NC(=O)Nc4ccc(Cl)c(Cl)c4)sc3c2)ccn1, the GI50 is reported as 1.95 µM and the TGI is reported as 4.33 µM.

System: not listed separately
Test: Antiproliferative activity against human TK10 cells assessed as growth inhibition after 48 hrs by sulforhodamine B assay
Type: functional
Settings: TK-10, 48 h
For CNC(=O)c1cc(Oc2ccc3nc(NC(=O)Nc4ccc(Cl)c(Cl)c4)sc3c2)ccn1, the GI50 was 3.46 µM and the TGI was 9.26 µM.

Same assay, conditions: TK-10, 48 h, read-out: LC50 (the source's name)
Compound CNC(=O)c1cc(Oc2ccc3nc(NC(=O)Nc4ccc(Cl)c(Cl)c4)sc3c2)ccn1 has a CC50 greater than 100 µM.

System: not listed separately
Test: Antiproliferative activity against human Caki1 cells assessed as growth inhibition after 48 hrs by sulforhodamine B assay
Type: functional
Settings: CAKI-1, 48 h
Compound CNC(=O)c1cc(Oc2ccc3nc(NC(=O)Nc4ccc(Cl)c(Cl)c4)sc3c2)ccn1 has a GI50 of 2.46 µM and a TGI of 6.3 µM.

Same assay, conditions: CAKI-1, 48 h, read-out: LC50 (the source's name)
CNC(=O)c1cc(Oc2ccc3nc(NC(=O)Nc4ccc(Cl)c(Cl)c4)sc3c2)ccn1 showed a CC50 greater than 100 µM.

System: MDA-MB-231
Test: Antiproliferative activity against human MDA-MB-231 cells assessed as cell growth at 10^-6 M after 48 hrs by sulforhodamine B assay
Type: functional
Settings: MDA-MB-231, 48 h, read-out: Activity
With CNC(=O)c1cc(Oc2ccc3nc(NC(=O)Nc4ccc(Cl)c(Cl)c4)sc3c2)ccn1 the growth at 1 µM was 85%.

Target: Serine/threonine-protein kinase B-raf (Homo sapiens, UniProt P15056, V600E)
Sequence (P15056 2-766 V600E limits assumed): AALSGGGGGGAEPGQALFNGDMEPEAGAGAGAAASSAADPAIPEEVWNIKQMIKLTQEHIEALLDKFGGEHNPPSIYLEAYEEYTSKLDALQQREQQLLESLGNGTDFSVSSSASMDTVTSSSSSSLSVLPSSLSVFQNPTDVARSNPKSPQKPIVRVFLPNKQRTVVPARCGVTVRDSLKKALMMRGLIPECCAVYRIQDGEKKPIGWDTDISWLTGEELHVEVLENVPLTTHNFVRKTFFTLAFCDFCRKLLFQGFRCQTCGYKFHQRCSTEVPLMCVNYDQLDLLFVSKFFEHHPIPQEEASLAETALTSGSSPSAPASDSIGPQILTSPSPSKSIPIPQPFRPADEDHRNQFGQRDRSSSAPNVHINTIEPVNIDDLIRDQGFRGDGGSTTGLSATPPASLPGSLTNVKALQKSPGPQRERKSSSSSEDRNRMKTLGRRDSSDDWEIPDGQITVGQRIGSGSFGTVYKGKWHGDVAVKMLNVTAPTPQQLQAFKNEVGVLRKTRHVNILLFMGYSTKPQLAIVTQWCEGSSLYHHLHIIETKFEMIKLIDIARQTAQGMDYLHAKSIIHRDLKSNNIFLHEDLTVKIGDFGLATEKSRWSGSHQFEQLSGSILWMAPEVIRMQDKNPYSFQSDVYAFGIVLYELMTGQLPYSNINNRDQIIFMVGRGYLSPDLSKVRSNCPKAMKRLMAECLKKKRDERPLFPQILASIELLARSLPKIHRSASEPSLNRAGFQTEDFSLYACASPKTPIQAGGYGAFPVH
Test: Inhibition of BRAF V600E mutant (unknown origin) measured after 40 mins by scintillation counting
Settings: not given
For CNC(=O)c1cc(Oc2ccc3nc(NC(=O)Nc4ccc(Cl)c(Cl)c4)sc3c2)ccn1, the IC50 was 0.095 µM.
